Test system: phospho-Tau
Assay: Phospho-Tau assay using cultured rat cortical neurons (okadaic acid insult)
Type: cell-based
Conditions: pretreatment, 30 nM okadaic acid, rat cortical cultures, FIG. 14 and 15B
Protocol: Phospho-Tau Assay Using Cultured Rat Cortical Neurons. Primary cortical cell cultures were prepared as described previously.^2 Briefly, pregnant Sprague Dawley dams were euthanized at embryonic day 18 (E18), and the cortices of the pups were harvested. Cells were plated on poly-d-lysine coated plates at 15,000 cells per well. Cultures were maintained at 37° C. under an atmosphere containing 5% CO2. Plating media consisted of 10% heat-inactivated fetal bovine serum (FBS; Fisher) 1% penicillin-streptomycin (Fisher), and 0.5 mM glutamine (Life Technologies) in Neurobasal (Fisher). After 16-24 h, media was exchanged for replacement media consisting of IX B27 supplement (Fisher), 1% penicillin-streptomycin, 0.5 mM glutamine, and 12.5 μM glutamate in Neurobasal. On DIV6 and DIV13, 50% of media was removed, and feeding media containing 1×B27 supplement, 1% penicillin-streptomycin, 0.5 mM glutamine in Neurobasal was added with an additional 20% volume added to account for evaporation. On DIV14, the volume of each well was adjusted to 180 μL. Next, 1000× solutions of compounds in DMSO were diluted 1:100 into Neurobasal and 20 μL of the resulting solutions was added to the appropriate wells (total dilution=1:1000, 0.1% DMSO). For wells that were not treated with compounds, DMSO was diluted 1:100 into Neurobasal and 20 μL of the resulting solution was added to the appropriate wells. All treatments were randomized. After 24 h, 20 μL was removed from each well. […] After 1 h, neurons were fixed by removing 80% of the media and replacing it with a volume of 4% aqueous paraformaldehyde (ThermoFisher) equal to 50% of the working volume of the well. Then, the cells were incubated at room temperature for 15 min before the fixative was aspirated and each well was washed twice with DPBS. Cells were permeabilized using 0.2% Triton X-100 (ThermoFisher) in DPBS for 15 min at room temperature without shaking. Plates were blocked with blocking buffer (2% bovine serum albumin and […] in DPBS) overnight at 4° C. Then, plates were incubated overnight at 4° C. with gentle shaking in antibody dilution buffer (ADB) (1% bovine serum albumin and […] in DBPS) containing a chicken anti-MAP2 antibody (1:10,000; EnCor, CPCA-MAP2), guinea pig anti-Tau antibody (1:1000; Synaptic Systems), mouse anti-phosphoTau (Ser202/Thr205) antibody (1:1000; Invitrogen), and rabbit anti-phosphoTau (Ser396) antibody (1:1000; Invitrogen). Plates were washed twice with DPBS and once with ADB before being incubated for 1 h at room temperature in ADB containing an anti-chicken IgY secondary antibody conjugated to Alexa Fluor™ Plus 800 (1:1000; Invitrogen), an anti-mouse IgG secondary antibody conjugated to Alexa Fluor™ Plus 680 (1:1000; Invitrogen), an anti-guinea pig IgG secondary antibody conjugated to Alexa Fluor™ 596 (1:1000; Invitrogen), and an anti-rabbit IgG secondary antibody conjugated to Alexa Fluor™ Plus 488 (1:1000; Invitrogen). Plates were washed three times with DBPS, and after the final wash, 100 μL of DPBS was added per well before imaging on a CellInsight™ CX7 High Content Analysis imager at 20× with 12 ROIs taken per well with no bias to location and no overlap of the ROIs. Images were analyzed using Cellnomics Scan software (version 6.6.2). The compartmental analysis assay was used to measure the average intensity of each channel per field and determine the reported intensity ratios.

In the case of CN(C)CCn1ccc2ccccc21 [isoDMT, reference compound], the “hyperphosphorylation of Tau (pTau accumulation) induced by okadaic acid” value was “does not”.

Source: patent publication US20260284018A1, “DUAL INHIBITORS OF DYRK1A AND 5-HT2 FOR TREATING A BRAIN DISORDER” (THE REGENTS OF THE UNIVERSITY OF CALIFORNIA, priority 2023, published 2026)
